From publication PMC4320118, “Micheliolide Derivative DMAMCL Inhibits Glioma Cell Growth In Vitro and In Vivo” (PLoS ONE, 2015)
“Also recorded” adds a separate entry of the source. Read-outs that look alike come from different tables or passages of the source.

Experiments:
AML models = conditions: cited from earlier work
[1] = Toxicity of DMAMCL, oral once a day for 21 days; type: in vivo, Wistar rats; design: Cr: unit not given here; conditions: for ALB / ALP / ALT / AST / CHOL / CK / Cr / GLU / TG / TP / Urea: serum
Protocol: Wistar rats (150–170 g) were divided into the following 3 groups (6 rats /group): 1) vehicle control, 2) DMAMCL at 200 mg/kg, and 3) DMAMCL at 300 mg/kg. DMAMCL was administered orally once a day for 21 days. Rats were weighed on days 0, 3, 7, 11, 14, 17, and 21. Total food intake was measured as the weight of food consumed during a 24-h period on days 3, 8, 15, and 22. On the 23rd day, rats were anesthetized and sacrificed via CO2 asphyxiation. Peripheral blood was collected for hematological and serum biochemical analyses using a blood cell counter (Medonic M16, Boule medical AB, Sweden) and a Hitachi 7180 Automatic Analyzer (Japan). Tissues samples from the liver, spleen, lung, kidney, and brain were collected and embedded in paraffin for H&E staining.

U-87MG cells = experiment: Cell proliferation MTT assay, U-87MG; type: cell-based; conditions: Homo sapiens, 72 h
Protocol: (§1) C6 and U-87MG cell lines were obtained from the American Type Culture Collection (ATCC) and cultured in our laboratory. Rat C6 glioma cells were cultured in F12K nutrient medium (Gibco, Grand Island, […]) supplemented with 15% horse serum (Auckland, NZ), 2.5% fetal bovine serum (FBS), 100 U/mL penicillin, and […] streptomycin (Gibco, Paisley, Scotland, UK). Human U-87MG cells were cultured in minimum essential medium (MEM) supplemented with 10% FBS, 1% nonessential amino acids, 100 U/mL penicillin, and […] streptomycin. Cells were cultured under a humidified atmosphere containing 5% CO2 at 37°C, and medium was changed every 1 to 2 days.
(§2) Tumor cells were seeded in 96-well plates at a density of 3500 cells/well. After 24 h in culture, cells were exposed to different concentrations of DMAMCL or medium alone (control) for 72 h. Cell viability was determined by MTT assays. Briefly, MTT regent (0.5 mg/mL) was added to wells, and cells were incubated for 4 h at 37°C. After removing the supernatant, 200 μL of dimethyl sulfoxide (DMSO) (Fluka, Switzerland) was added to dissolve formazan crystals. The absorbance at 570 nm was measured by a microplate reader (Thermo Labsystems, Helsinki, Finland). Control absorbance was taken as 100%. The absorbance of DMAMCL-treated cells was taken as percentage survival. […]

[2] = Biodistribution of DMAMCL in rats after a single oral dose (UPLC-MS/MS); type: in vivo, Wistar rats; design: Mean concentration in brain: unit not given here; conditions: single oral dose 100 mg/kg
Protocol: All rats had free access to food and water. Before drug administration, rats were fasted for 12 h and water was freely available.
Aqueous DMAMCL solutions were administered orally (100 mg/kg) (n = 6 rats per group). Blood and tissue samples from rats were collected at the setting time and analyzed on an ultraperformance liquid chromatography-mass spectrometry (UPLC-MS/MS) system (Waters/Micromass, Milford, MA) using noncompartmental analyses. All the biological specimens were detected at once or stored at -80°C for detection.

C6 cells = experiment: Cell proliferation MTT assay, C6; type: cell-based; conditions: Rattus norvegicus, 72 h
Protocol: as §1, §2

[3] = tested on: Bcl-2 and Bax in U-87MG cells; experiment: Western blotting of Bcl-2 and Bax, U-87MG cells; type: cell-based, human; conditions: 60 μM and 120μM, 24 hr
Protocol: The cellular proteins were extracted from 10^7 cultured cells after drug treatments using RIPA lysis buffer (Promega, USA). Western blotting analysis was performed to determine cellular responses targeting apoptosis-related proteins including Bcl-2 and Bax. Briefly, C6 and U-87MG cells were treated with different doses of DMAMCL for 24 hr at 37°C. Then cells were washed twice with cold phosphate buffered saline (PBS) and lysed in RIPA buffer containing 1mmol/l PMSF (Pheylmethylsulfonyl fluoride, Sigma, USA) on ice for 30 min. The total proteins of cells were obtained by centrifugation at 12000 rpm for 15 min. Next, the lysate proteins were resolved by SDS-PAGE and transferred to the Immobilon-P membranes (Millipore, Billerica, MA, USA). The membranes were blocked by 5% nonfat milk in Tris-buffered saline with 0.1% Tween 20 (TBST) and immunoblotted with the antibodies against β-actin, Bcl-2 and Bax (Cellsignaling Technology, USA) at 4°C overnight. Then membranes were incubated with HRP-conjugated secondary antibody for 1.5 hr at room temperature. The targeting antibodies were stained with enhanced chemiluminescent reagents (Millipore, Billerica, MA, USA) and visualized by ChemiScope 3600 Mini systerm (Clinx Science Instruments, China).

[4] = 200 mg/kg orally once a day for 21 days
[5] = 300 mg/kg orally once a day for 21 days

## CC1=C2CC[C@@](C)(O)[C@@H]2[C@H]2OC(=O)[C@@H](CN(C)C)[C@@H]2CC1 [DMAMCL, dimethylaminomicheliolide]
AML models
  Therapeutic efficacy in AML models: superior therapeutic efficacy
[1]; [4]
  GRAN%: 26.5 ± 3.3%
  HCT%: 35.6 ± 1.2%
  HGB: 145 ± 12.3 g/L
  LYM%: 71.3 ± 6.3%
  MCV: 55.5 ± 1.4 fL
  MONO%: 2.1 ± 0.3%
  PLT: 1195 ± 87 ×10^9/L
  RBC: 6.73±1.3 ×10^12/L
  RDW%: 18.5 ± 1.1%
  WBC: 12.5 ± 2.5 ×10^9/L
  ALB: 32.5 ± 3.01 g/L
  ALP: 190 ± 19 U/L
  ALT: 51 ± 10 U/L
  AST: 98 ± 12 U/L
  CHOL: 1.39 ± 0.67 mM
  CK: 423 ± 35 U/L
  Cr: 79 ± 23
  GLU: 5.22 ± 2.01 mM
  TG: 0.81 ± 0.23 mM
  TP: 61.0 ± 4.6 g/L
  Urea: 6.45 ± 2.3 mM
[1]; [5]
  GRAN%: 26.3 ± 4.1%
  HCT%: 37.7 ± 0.8%
  HGB: 140 ± 11.1 g/L
  LYM%: 69.9 ± 6.0%
  MCV: 53.5 ± 2.3 fL
  MONO%: 2.9 ± 0.9%
  PLT: 1132 ± 82 ×10^9/L
  RBC: 6.37 ± 1.01 ×10^12/L
  RDW%: 17.8 ± 0.7%
  WBC: 11.9 ± 1.3 ×10^9/L
  ALB: 34 ± 1.98 g/L
  ALP: 179 ± 30 U/L
  ALT: 49 ± 11 U/L
  AST: 111 ± 15 U/L
  CHOL: 1.42 ± 0.78 mM
  CK: 523 ± 101 U/L
  Cr: 80 ± 17
  GLU: 5.23 ± 1.34 mM
  TG: 0.69 ± 0.33 mM
  TP: 58.3 ± 3.3 g/L
  Urea: 7.33 ± 1.02 mM
[1]; 200 or 300 mg/kg orally once a day for 21 days
  Toxicity (body weight, daily food intake, histopathology, hematology, serum biochemistry): did not result in toxicity; also recorded: No significant changes were observed; also recorded: did not lead to toxicity
U-87MG cells; read-out: IC50
  IC50: 20.6 ± 1.61 µM
U-87MG cells; read-out: x0 (midpoint of logistic fit, Fig 3B) (converted)
  IC50: 20.6 ± 1.6 µM
[2]; Wistar, rat, brain, rats, 0.083h, read-out: C brain / C plasma
  Kp at 0.083 h: 1.45
[2]; Wistar, rat, brain, rats, 0.5h, read-out: C brain / C plasma
  Kp at 0.5 h: 1.84
[2]; Wistar, rat, brain, rats, 3h, read-out: C brain / C plasma
  Kp at 3 h: 1.91
[2]; Wistar, rat, brain, read-out: Concentration in rat brain
  concentration at 3 h: 4.91 ± 0.869 µg/mL
[2]; Wistar, rat, brain, read-out: Time of peak concentration in rat brain
  Tmax: 30 min
[2]; Wistar, rat, plasma, read-out: Concentration in plasma
  concentration at 3 h: 2.57 ± 0.968 µg/mL
[2]; rats
  Concentration in brain compared with plasma: higher in the brain than in plasma
  Concentration in tissues compared with plasma: dramatically higher in almost all tissues than in plasma
[2]; rats, 0.083h
  Mean concentration in brain: 6360
  Mean concentration in plasma: 4373 µg/mL
[2]; rats, 0.5h
  Mean concentration in brain: 18970
  Mean concentration in plasma: 10310 µg/mL
[2]; rats, 3h
  Mean concentration in brain: 4913
  Mean concentration in plasma: 2567 µg/mL
[2]; 0.5 hours after administration
  Peak concentration in rat brain: 18970 ± 9603 ng/mL
C6 cells; read-out: IC50
  IC50: 27.2 ± 1.89 µM
C6 cells; read-out: x0 (midpoint of logistic fit, Fig 3A) (converted)
  IC50: 27.2 ± 1.89 µM
[3]
  Bax expression (Western blot): up-regulated Bax expression
  Bcl-2 expression (Western blot): down-regulated Bcl-2 expression
